This note sets out measurements from patent publication US8008505B2, “Indazole or 4,5,6,7-tetrahydro-indazole derivatives” (Hoffmann-La Roche Inc., priority 2008, dated 2011).

Molecules are shown by their SMILES.

The assay concerns the target T1, FXR ligand binding domain (Homo sapiens, UniProt Q96RI1).
T1 sequence (Q96RI1 1-486): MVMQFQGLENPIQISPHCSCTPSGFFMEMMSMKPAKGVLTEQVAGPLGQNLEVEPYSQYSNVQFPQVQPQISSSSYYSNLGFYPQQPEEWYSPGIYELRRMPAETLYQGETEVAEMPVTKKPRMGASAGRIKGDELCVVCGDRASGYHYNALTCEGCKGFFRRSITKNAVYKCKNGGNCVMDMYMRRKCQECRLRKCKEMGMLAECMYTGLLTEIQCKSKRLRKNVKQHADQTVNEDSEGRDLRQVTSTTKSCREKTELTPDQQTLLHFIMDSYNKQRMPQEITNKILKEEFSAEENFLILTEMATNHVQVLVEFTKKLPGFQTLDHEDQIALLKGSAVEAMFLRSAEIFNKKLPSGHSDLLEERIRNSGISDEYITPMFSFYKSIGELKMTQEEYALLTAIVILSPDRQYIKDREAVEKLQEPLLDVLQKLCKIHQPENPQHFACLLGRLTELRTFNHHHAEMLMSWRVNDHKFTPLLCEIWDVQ
Nature of the assay: Radioligand binding assay (radioligand displacement, scintillation proximity). The conditions noted are these: GST-FXR LBD fusion protein on SPA beads, radioligand 2,N-dicyclohexyl-2-[2-(2,4 dimethoxy-phenyl)-benzoimidazol-1-yl]-acetamide, RT 30 minutes. The protocol:
The following tests were carried out in order to determine the activity of the compounds of formula I. Background information on the binding assay can be found in: Nichols J S et al. “Development of a scintillation proximity assay for peroxisome proliferator-activated receptor gamma ligand binding domain”, (1998) Anal. Biochem. 257: 112-119.
Bacterial and mammalian expression vectors were constructed to produce glutathione-s-transferase (GST) and Gal4 DNA binding domain (GAL) proteins fused to the ligand binding domain (LBD) of human FXR (aa 193-473). To accomplish this, the portions of the sequences encoding the FXR LBD were amplified by polymerase chain reaction (PCR) from a full-length clone by PCR and then subcloned into the plasmid vectors. The final clone was verified by DNA sequence analysis.
The induction, expression, and subsequent purification of GST-LBD fusion protein was performed in E. coli strain BL21(pLysS) cells by standard methods (Current Protocols in Molecular Biology, Wiley Press, ed. Ausubel et al).
Radioligand Binding Assay
Binding of test substances to the FXR ligand binding domain was assessed in a radioligand displacement assay. The assay was performed in a buffer consisting of 50 mM Hepes, pH 7.4, 10 mM NaCl, 5 mM MgCl2. For each reaction well in a 96-well plate, 40 nM of GST-FXR LBD fusion protein was bound to 10 μg glutathione ytrium silicate SPA beads (Pharmacia Amersham) in a final volume of 50 μl by shaking. A radioligand (eg. 40 nM) of 2,N-dicyclohexyl-2-[2-(2,4 dimethoxy-phenyl)-benzoimidazol-1-yl]-acetamide) was added, and the reaction incubated at RT for 30 minutes in the presence of test compounds followed by scintillation proximity counting. All binding assays were performed in 96-well plates and the amount of bound ligand was measured on a Packard TopCount using OptiPlates (Packard). Dose response curves were performed within a range of concentration from 6×10^−9 M to 2.5×10^−5 M.
A general note: In a radioligand displacement assay an active substance lowers the binding of a labelled ligand.
The term IC50 denotes the concentration at which inhibition is half-maximal. Read a high IC50 as weaker potency in that assay. `O=C(O)c1ccc(COC(c2c3c(nn2-c2ccc(Cl)cc2)CCCC3)C2CCCCC2)cc1` (racemic) [Example 28, [rac]-4-{[2-(4-Chloro-phenyl)-4,5,6,7-tetrahydro-2H-indazol-3-yl]-cyclohexyl-methoxymethyl}-benzoic acid] yielded an IC50 of 510 nM.

The compound `O=C(O)c1ccc(COC(c2c3cc(F)c(F)cc3nn2-c2ccc(Cl)cc2)C2CCCCC2)cc1` (racemic) [Example 27, [rac]-4-{[2-(4-Chloro-phenyl)-5,6-difluoro-2H-indazol-3-yl]-cyclohexyl-methoxymethyl}-benzoic acid] gave an IC50 of 245 nM. This IC50 is about 2.1-fold lower than that of the compound before.

For `O=C(NC1CCCCC1)C(c1c2ccccc2nn1-c1ccccc1)C1CCCCC1` (stereo not drawn) [Example 1, 2,N-Dicyclohexyl-2-(2-phenyl-2H-indazol-3-yl)-acetamide], the 50% inhibitory concentration (IC50) is 1920 nM.
